Results reported in US8022206B2 (OSI Pharmaceuticals, LLC, priority 2008, dated 2011).

Legend:
RON (human) = RON (human) (Homo sapiens, UniProt Q04912); test: RON (human) AlphaScreen kinase assay, Km of ATP; type: biochemical; conditions: AlphaScreen, Km of ATP; read-out: RON biochemical IC50
Method in brief: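 Reaction was started with enzyme and run 30 min at RT. PT66 donor/acceptor beads in an EDTA-containing Tris pH 7.5 buffer were then added, and the signal was read after 1 h.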

MET (human) = MET (human) (Homo sapiens, UniProt P08581); test: MET (human) AlphaScreen kinase assay, Km of ATP; type: biochemical; conditions: AlphaScreen, Km of ATP; read-out: Met biochemical IC50
Sequence of MET (human) (P08581 25-1390): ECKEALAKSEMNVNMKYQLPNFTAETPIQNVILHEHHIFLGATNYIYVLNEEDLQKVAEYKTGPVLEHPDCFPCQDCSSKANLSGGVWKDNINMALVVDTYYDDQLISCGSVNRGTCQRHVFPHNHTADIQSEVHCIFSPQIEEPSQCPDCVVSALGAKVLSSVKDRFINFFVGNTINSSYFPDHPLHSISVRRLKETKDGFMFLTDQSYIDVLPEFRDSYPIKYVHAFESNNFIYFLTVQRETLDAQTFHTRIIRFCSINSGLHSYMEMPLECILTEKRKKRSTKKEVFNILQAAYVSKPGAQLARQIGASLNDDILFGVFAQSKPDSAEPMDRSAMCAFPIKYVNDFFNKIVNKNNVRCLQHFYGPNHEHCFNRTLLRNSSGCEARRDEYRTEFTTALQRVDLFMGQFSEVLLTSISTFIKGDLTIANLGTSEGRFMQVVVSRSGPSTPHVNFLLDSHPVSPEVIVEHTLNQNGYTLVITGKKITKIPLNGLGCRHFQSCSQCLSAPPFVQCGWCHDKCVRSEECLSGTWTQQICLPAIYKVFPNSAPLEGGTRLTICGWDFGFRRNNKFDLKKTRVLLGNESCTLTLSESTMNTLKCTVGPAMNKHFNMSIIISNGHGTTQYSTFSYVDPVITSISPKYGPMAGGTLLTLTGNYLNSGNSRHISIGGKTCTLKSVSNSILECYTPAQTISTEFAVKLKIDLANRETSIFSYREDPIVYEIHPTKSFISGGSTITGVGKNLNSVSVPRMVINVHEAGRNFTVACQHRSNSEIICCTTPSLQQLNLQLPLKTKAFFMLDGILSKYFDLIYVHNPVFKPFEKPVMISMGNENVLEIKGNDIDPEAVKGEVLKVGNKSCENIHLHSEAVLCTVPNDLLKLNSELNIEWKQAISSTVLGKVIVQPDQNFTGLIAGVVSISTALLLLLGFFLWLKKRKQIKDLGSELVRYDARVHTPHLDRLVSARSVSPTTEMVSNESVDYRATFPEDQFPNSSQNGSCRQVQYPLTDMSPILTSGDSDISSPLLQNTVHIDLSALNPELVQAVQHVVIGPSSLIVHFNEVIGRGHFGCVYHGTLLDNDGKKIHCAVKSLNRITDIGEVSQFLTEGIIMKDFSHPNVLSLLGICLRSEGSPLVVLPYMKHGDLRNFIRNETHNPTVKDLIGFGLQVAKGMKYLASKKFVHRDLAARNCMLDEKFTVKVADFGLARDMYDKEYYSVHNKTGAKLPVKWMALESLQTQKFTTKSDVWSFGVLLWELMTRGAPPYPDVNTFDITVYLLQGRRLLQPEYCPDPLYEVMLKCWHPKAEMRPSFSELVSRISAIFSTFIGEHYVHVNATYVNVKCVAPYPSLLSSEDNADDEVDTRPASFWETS
Method in brief: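 Human MET at lot-optimised concentration in 50 mM Tris pH 7.4 buffer with 1 mM DTT, compound at 1% DMSO final; enzyme starts the reaction, 60 min at RT.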

Sequence of RON (human) (Q04912 25-1400): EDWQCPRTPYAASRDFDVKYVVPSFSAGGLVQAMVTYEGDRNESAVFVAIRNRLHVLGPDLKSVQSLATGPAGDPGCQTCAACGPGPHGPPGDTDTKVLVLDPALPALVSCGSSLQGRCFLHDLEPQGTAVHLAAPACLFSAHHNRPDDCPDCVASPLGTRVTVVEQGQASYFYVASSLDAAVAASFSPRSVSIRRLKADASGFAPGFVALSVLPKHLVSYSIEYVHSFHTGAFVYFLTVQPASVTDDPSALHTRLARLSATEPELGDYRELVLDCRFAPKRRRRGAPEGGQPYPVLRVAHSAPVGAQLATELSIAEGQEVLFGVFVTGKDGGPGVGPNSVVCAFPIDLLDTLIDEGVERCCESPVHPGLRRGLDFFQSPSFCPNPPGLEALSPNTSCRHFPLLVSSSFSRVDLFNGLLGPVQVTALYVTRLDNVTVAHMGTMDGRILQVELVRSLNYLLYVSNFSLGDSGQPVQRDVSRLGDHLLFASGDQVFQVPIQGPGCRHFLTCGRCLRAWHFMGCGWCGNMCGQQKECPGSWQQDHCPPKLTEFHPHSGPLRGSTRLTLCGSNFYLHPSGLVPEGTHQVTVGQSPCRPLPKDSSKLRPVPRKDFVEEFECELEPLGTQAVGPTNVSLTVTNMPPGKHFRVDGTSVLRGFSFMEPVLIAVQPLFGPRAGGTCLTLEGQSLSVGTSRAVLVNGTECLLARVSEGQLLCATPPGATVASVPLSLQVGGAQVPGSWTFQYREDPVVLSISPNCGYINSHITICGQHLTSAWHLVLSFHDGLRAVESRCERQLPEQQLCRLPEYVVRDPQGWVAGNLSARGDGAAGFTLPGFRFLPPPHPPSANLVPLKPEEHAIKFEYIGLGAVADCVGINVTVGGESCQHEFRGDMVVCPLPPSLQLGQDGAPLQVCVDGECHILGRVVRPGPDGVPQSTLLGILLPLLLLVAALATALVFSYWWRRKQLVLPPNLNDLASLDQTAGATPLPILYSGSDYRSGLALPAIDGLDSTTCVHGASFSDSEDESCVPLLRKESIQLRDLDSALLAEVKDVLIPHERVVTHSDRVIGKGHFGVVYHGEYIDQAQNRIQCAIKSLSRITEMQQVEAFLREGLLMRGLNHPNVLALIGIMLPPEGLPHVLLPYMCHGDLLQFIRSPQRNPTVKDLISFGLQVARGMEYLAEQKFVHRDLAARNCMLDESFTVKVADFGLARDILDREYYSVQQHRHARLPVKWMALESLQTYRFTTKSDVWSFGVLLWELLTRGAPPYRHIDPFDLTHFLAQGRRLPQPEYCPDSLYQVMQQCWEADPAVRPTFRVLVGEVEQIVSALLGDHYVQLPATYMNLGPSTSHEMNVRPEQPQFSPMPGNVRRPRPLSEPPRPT

| IC50 (RON (human)) [nM] | IC50 (MET (human)) [nM] | Compound |
| --- | --- | --- |
| 500 to 5000 | 500 to 5000 | C[C@@H](Oc1c(N)ncc2c(-c3cccn3C)coc12)c1c(Cl)ccc(F)c1Cl [Example 121, 7-[(R)-1-(2,6-Dichloro-3-fluorophenyl)ethoxy]-3-(1-methyl-1H-pyrrol-2-yl)furo[3,2-c]pyridin-6-ylamine] |
| 500 to 5000 | 500 to 5000 | C[C@@H](Oc1c(N)ncc2c(-c3ccc(O)cc3)coc12)c1c(Cl)ccc(F)c1Cl [Example 59, 4-{6-Amino-7-[(R)-1-(2,6-dichloro-3-fluorophenyl)ethoxy]-furo[3,2-c]pyridin-3-yl}phenol] |
| 500 to 5000 | 500 to 5000 | C[C@@H](Oc1c(N)ncc2c(-c3ccc(N4CCOCC4)nc3)coc12)c1c(Cl)ccc(F)c1Cl [Example 107, 7-[(R)-1-(2,6-Dichloro-3-fluorophenyl)ethoxy]-3-(6-morpholin-4-ylpyridin-3-yl)-furo[3,2-c]pyridin-6-ylamine] |
| > 20000 | 5000 to 20000 | C[C@H](Oc1c(N)ncc2ccoc12)c1nnc2ccc(-c3ccccc3)nn12 [Example 475, 7-[(1S)-1-(6-phenyl[1,2,4]triazolo[4,3-b]pyridazin-3-yl)ethoxy]furo[3,2-c]pyridin-6-amine] |
| 500 to 5000 | 500 to 5000 | CC(Oc1c(N)ncc2c(-c3cnn(C4CCNCC4)c3)coc12)c1cccc(-c2ccc[nH]2)c1 (stereo not drawn) [Example 445] |
| 500 to 5000 | 500 to 5000 | CC(Oc1c(N)ncc2c(-c3cnn(C4CCNCC4)c3)coc12)c1nc2ccccc2s1 (stereo not drawn) [Example 404, 7-(1-Benzothiazol-2-ylethoxy)-3-(1-piperidin-4-yl-1H-pyrazol-4-yl)furo[3,2-c]pyridin-6-ylamine] |
| < 500 | < 500 | C[C@@H](Oc1c(N)ncc2c(-c3csc(CN4CCCC4)c3)coc12)c1c(Cl)ccc(F)c1Cl [Example 308, 7-[(R)-1-(2,6-Dichloro-3-fluorophenyl)ethoxy]-3-(5-pyrrolidin-1-ylmethylthiophen-3-yl)furo[3,2-c]pyridin-6-ylamine] |
| 500 to 5000 | < 500 | C[C@H](Oc1c(N)ncc2c(C3=CCN(C(N)=O)CC3)coc12)c1c(Cl)ccc(F)c1Cl [Example 456, 4-{6-Amino-7-[(S)-1-(2,6-dichloro-3-fluorophenyl)ethoxy]furo[3,2-c]pyridin-3-yl}-3,6-dihydro-2H-pyridine-1-carboxamide] |
| 500 to 5000 | 500 to 5000 | Nc1ncc2c(-c3cnn(C4CCNCC4)c3)coc2c1O[C@H]1CCCC[C@H]1c1ccccc1 [Example 409] |
| 500 to 5000 | < 500 | Nc1ncc2c(-c3cnn(C4CCNCC4)c3)coc2c1O[C@H](c1ccccc1)C(F)(F)F [Example 392, 3-(1-Piperidin-4-yl-1H-pyrazol-4-yl)-7-((R)-2,2,2-trifluoro-1-phenylethoxy)furo[3,2-c]pyridin-6-ylamine] |
| < 500 | < 500 | C[C@@H](Oc1c(N)ncc2c(-c3ccc(C(=O)N4CCN(CCO)CC4)cc3)coc12)c1c(Cl)ccc(F)c1Cl [Example 99, (4-{6-Amino-7-[(R)-1-(2,6-dichloro-3-fluorophenyl)ethoxy]-furo[3,2-c]pyridin-3-yl}phenyl)-[4-(2-hydroxyethyl)piperazin-1-yl]methanone] |
| 500 to 5000 | 500 to 5000 | C[C@@H](Oc1c(N)ncc2c(C3=CCN(C(=O)[C@H](O)c4ccccc4)CC3)coc12)c1c(Cl)ccc(F)c1Cl [Example 266, (2R)-1-[4-{6-Amino-7-[(1R)-1-(2,6-dichloro-3-fluorophenyl)ethoxy]furo[3,2-c]pyridin-3-yl}-3,6-dihydropyridin-1(2H)-yl]-2-hydroxy-2-phenylethanone] |
| 5000 to 20000 | 500 to 5000 | C[C@@H](Oc1c(N)ncc2c(C(N)=O)coc12)c1c(Cl)ccc(F)c1Cl [Example 180, 6-Amino-7-[(R)-1-(2,6-dichloro-3-fluorophenyl)ethoxy]furo[3,2-c]pyridine-3-carboxamide] |
| 500 to 5000 | 500 to 5000 | C[C@@H](Oc1c(N)ncc2c(-c3ccc(CO)cc3)coc12)c1c(Cl)ccc(F)c1Cl [Example 64, (4-{6-Amino-7-[(R)-1-(2,6-dichloro-3-fluorophenyl)ethoxy]-furo[3,2-c]pyridin-3-yl}-phenyl)methanol] |
| < 500 | < 500 | C[C@@H](Oc1c(N)ncc2c(-c3csc(CN4CCN(C)CC4)c3)coc12)c1c(Cl)ccc(F)c1Cl [Example 304, 7-[(R)-1-(2,6-Dichloro-3-fluorophenyl)ethoxy]-3-[5-(4-methyl-piperazin-1-ylmethyl)thiophen-3-yl]-furo[3,2-c]pyridin-6-ylamine] |
| 500 to 5000 | 500 to 5000 | C[C@@H](Oc1c(N)ncc2c(-c3ccc(S(C)(=O)=O)cc3)coc12)c1c(Cl)ccc(F)c1Cl [Example 62, 7-[(R)-1-(2,6-Dichloro-3-fluorophenyl)ethoxy]-3-(4-methane-sulfonylphenyl)furo[3,2-c]pyridin-6-ylamine] |
| 500 to 5000 | < 500 | Cc1ccccc1C(C)Oc1c(N)ncc2c(-c3cnn(C4CCNCC4)c3)coc12 (stereo not drawn) [Example 342, 3-(1-Piperidin-4-yl-1H-pyrazol-4-yl)-7-(1-o-tolylethoxy)furo[3,2-c]pyridin-6-ylamine] |
| 500 to 5000 | < 500 | C[C@@H](Oc1c(N)ncc2c(C3=CCN(C(=O)[C@@H](N)c4ccccc4)CC3)coc12)c1c(Cl)ccc(F)c1Cl [Example 261, (2S)-2-Amino-1-[4-{6-amino-7-[(1R)-1-(2,6-dichloro-3-fluoro-phenyl)ethoxy]furo[3,2-c]pyridin-3-yl}-3,6-dihydropyridin-1(2H)-yl]-2-phenylethanone] |
| 500 to 5000 | < 500 | C[C@@H](Oc1c(N)ncc2c(C(=O)NCCN(C)C)coc12)c1c(Cl)ccc(F)c1Cl [Example 190, 6-Amino-7-[(R)-1-(2,6-dichloro-3-fluorophenyl)ethoxy]furo[3,2-c]pyridine-3-carboxylic acid (3-dimethylaminoethyl)amide] |
| 500 to 5000 | 500 to 5000 | C[C@@H](Oc1c(N)ncc2c(-c3cnn(C4CCNCC4)c3)coc12)c1ccccn1 [Example 399, 3-(1-Piperidin-4-yl-1H-pyrazol-4-yl)-7-((R)-1-pyridin-2-yl-ethoxy)furo[3,2-c]pyridin-6-ylamine] |
| 500 to 5000 | < 500 | CC(Oc1c(N)ncc2c(-c3cnn(C4CCNCC4)c3)coc12)c1c(F)cc(Cl)cc1Cl (stereo not drawn) [Example 372, 7-[1-(2,4-Dichloro-6-fluorophenyl)ethoxy]-3-(1-piperidin-4-yl-1H-pyrazol-4-yl)furo[3,2-c]pyridin-6-ylamine] |
| 500 to 5000 | < 500 | C[C@@H](Oc1c(N)ncc2c(-c3ccc(C(=O)O)s3)coc12)c1c(Cl)ccc(F)c1Cl [Example 206, 5-{6-Amino-7-[(R)-1-(2,6-dichloro-3-fluorophenyl)ethoxy]-furo[3,2-c]pyridin-3-yl}-thiophene-2-carboxylic acid] |
| 500 to 5000 | 500 to 5000 | CCCS(=O)(=O)Nc1cccc(-c2coc3c(O[C@H](C)c4c(Cl)ccc(F)c4Cl)c(N)ncc23)c1 [Example 244, Propane-1-sulfonic acid (3-{6-amino-7-[(R)-1-(2,6-dichloro-3-fluorophenyl)ethoxy]-furo[3,2-c]pyridin-3-yl}phenyl)amide] |
| < 500 | < 500 | COc1cccc(Cl)c1C(C)Oc1c(N)ncc2c(-c3cnn(C4CCNCC4)c3)coc12 (stereo not drawn) [Example 359, 7-[1-(2-Chloro-6-methoxyphenyl)ethoxy]-3-(1-piperidin-4-yl-1H-pyrazol-4-yl)furo[3,2-c]pyridin-6-ylamine] |
| 500 to 5000 | 500 to 5000 | C[C@@H](Oc1c(N)ncc2c(-c3ccc(C(=O)N4CCN(CCOCCO)CC4)cc3)coc12)c1c(Cl)ccc(F)c1Cl [Example 301, (4-{6-Amino-7-[(R)-1-(2,6-dichloro-3-fluoro-phenyl)ethoxy]furo[3,2-c]pyridin-3-yl}phenyl)-{4-[2-(2-hydroxyethoxy)ethyl]piperazin-1-yl}methanone] |
| 5000 to 20000 | 500 to 5000 | C[C@@H](Oc1c(N)ncc2c(-c3cc(C(=O)NC(C)(C)C)cs3)coc12)c1c(Cl)ccc(F)c1Cl [Example 331, 5-{6-Amino-7-[(R)-1-(2,6-dichloro-3-fluorophenyl)ethoxy]furo[3,2-c]pyridin-3-yl}thiophene-3-carboxylic acid tert-butylamide] |
| < 500 | < 500 | C[C@@H](O)C(=O)N1CC=C(c2coc3c(O[C@H](C)c4c(Cl)ccc(F)c4Cl)c(N)ncc23)CC1 [Example 226, (R)-1-(4-{6-Amino-7-[(R)-1-(2,6-dichloro-3-fluorophenyl)ethoxy]-furo[3,2-c]pyridin-3-yl}-3,6-dihydro-2H-pyridin-1-yl)-2-hydroxypropan-1-one] |
| 500 to 5000 | 500 to 5000 | C[C@@H](Oc1c(N)ncc2c(-c3ccc(C(=O)N(C)C)s3)coc12)c1c(Cl)ccc(F)c1Cl [Example 208, 5-{6-Amino-7-[(R)-1-(2,6-dichloro-3-fluorophenyl)ethoxy]-furo[3,2-c]pyridin-3-yl}-thiophene-2-carboxylic acid dimethyl amide] |
| 500 to 5000 | < 500 | CC(Cc1ccccc1Cl)Oc1c(N)ncc2c(-c3cnn(C4CCNCC4)c3)coc12 (stereo not drawn) [Example 426, 7-[2-(2-Chlorophenyl)-1-methylethoxy]-3-(1-piperidin-4-yl-1H-pyrazol-4-yl)furo[3,2-c]pyridin-6-ylamine] |
| 500 to 5000 | 500 to 5000 | C[C@@H](Oc1c(N)ncc2c(-c3ccc(C=O)s3)coc12)c1c(Cl)ccc(F)c1Cl [Example 210, 5-{6-Amino-7-[(R)-1-(2,6-dichloro-3-fluorophenyl)ethoxy]-furo[3,2-c]pyridin-3-yl}-thiophene-2-carbaldehyde] |
